Data on 15 compounds can be found in patent US20200291018A1, “TAM KINASE INHIBITORS” (SYROS PHARMACEUTICALS, INC., priority 2017, published 2020).

One experiment deals with T1, MERTK (Homo sapiens, UniProt Q12866).
T1 sequence (Q12866 21-999): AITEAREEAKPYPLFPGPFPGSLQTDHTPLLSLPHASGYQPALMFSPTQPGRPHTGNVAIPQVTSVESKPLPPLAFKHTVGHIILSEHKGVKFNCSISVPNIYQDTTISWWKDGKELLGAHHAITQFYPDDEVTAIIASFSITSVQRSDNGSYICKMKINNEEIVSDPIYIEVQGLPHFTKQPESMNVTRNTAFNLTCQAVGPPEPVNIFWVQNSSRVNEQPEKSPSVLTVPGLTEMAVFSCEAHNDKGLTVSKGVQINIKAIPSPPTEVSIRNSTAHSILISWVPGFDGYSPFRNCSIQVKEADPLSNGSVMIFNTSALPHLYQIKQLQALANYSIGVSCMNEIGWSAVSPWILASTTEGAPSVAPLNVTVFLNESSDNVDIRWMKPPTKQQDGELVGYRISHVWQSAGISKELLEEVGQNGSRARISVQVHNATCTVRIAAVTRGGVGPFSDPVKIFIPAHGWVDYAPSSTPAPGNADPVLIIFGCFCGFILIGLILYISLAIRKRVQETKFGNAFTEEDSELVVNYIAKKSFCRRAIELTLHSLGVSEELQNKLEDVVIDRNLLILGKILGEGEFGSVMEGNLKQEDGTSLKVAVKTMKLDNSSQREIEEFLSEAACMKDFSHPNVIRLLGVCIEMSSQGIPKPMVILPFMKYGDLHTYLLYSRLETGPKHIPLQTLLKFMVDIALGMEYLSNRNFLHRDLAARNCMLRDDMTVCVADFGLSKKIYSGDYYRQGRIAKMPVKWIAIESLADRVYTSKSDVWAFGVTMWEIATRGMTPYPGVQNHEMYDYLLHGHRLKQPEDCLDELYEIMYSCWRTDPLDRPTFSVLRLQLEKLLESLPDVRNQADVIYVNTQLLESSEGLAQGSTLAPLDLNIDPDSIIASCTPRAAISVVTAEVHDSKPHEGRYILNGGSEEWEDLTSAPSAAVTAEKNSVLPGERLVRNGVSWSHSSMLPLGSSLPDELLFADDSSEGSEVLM
In words: TR-FRET kinase activity assay, MERTK. In kind it is biochemical. Conditions: for IC50: TR-FRET activity assay, ATP at Km, 60 minutes, read-out: Mer IC50; for Mer/Flt3 ratio (FLT3 IC50/Mer IC50): ratio calculated as FLT3 IC50/Mer IC50. The essentials: (§1)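 IC50 came from TR-FRET signal after 30 min dark development with a Europium-labeled phospho-specific antibody. This followed a 60 min RT reaction, stopped with EDTA, started with ATP at Km per enzyme. Peptide substrate, enzyme and compound were premixed in HEPES pH 7.5 buffer with MgCl2, EGTA, Brij 35 and DTT.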

In a further experiment the target is T2, TYRO3 (Homo sapiens, UniProt Q06418).
T2 sequence (Q06418 41-890): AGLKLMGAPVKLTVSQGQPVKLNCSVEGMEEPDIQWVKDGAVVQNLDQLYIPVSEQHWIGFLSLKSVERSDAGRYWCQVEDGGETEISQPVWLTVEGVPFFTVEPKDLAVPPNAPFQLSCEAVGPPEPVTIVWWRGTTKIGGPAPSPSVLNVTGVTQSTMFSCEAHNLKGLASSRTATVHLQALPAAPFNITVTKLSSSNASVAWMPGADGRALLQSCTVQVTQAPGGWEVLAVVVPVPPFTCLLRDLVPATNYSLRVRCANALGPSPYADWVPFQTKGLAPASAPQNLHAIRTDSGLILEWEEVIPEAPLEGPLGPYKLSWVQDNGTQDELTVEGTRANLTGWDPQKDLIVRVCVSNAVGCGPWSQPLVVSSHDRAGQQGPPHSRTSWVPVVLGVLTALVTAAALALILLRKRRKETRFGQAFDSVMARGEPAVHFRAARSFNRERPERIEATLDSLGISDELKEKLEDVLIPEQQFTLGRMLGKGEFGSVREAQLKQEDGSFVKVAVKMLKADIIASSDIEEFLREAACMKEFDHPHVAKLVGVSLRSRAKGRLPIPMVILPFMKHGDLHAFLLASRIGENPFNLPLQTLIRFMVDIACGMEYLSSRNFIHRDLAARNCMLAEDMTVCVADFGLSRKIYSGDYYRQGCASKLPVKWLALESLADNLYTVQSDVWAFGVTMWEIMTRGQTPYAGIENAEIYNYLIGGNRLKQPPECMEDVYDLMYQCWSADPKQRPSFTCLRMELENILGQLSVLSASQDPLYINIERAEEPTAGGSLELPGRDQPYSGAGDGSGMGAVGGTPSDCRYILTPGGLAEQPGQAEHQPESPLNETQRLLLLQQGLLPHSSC
In words: TR-FRET kinase activity assay, TYRO3. In kind it is biochemical. Conditions: ATP at Km, 60 minutes. Summed up:
as §1
A general note: TR-FRET usually uses a lanthanide donor and a delayed reading to cut background.

With `C[C@@H](CC(F)(F)F)Nc1ncc2c(O[C@@H]3C[C@H]4CC[C@@H](C3)N4[C@@H]3CCOC3)ncc([C@H]3CC[C@H](O)CC3)c2n1` [Compound 415], the IC50 at MERTK and against TYRO3 was ≤ 100 nM in each case. The “Mer/Flt3 ratio (FLT3 IC50/Mer IC50)” value on MERTK is on record as “+++ (a ratio of >100)”.
On to `C[C@@H](CC(F)(F)F)Nc1ncc2c(O[C@@H]3C[C@H]4CC[C@@H](C3)N4C[C@@H]3CCOC3)ncc([C@H]3CC[C@H](O)CC3)c2n1` [Compound 416], for which, on MERTK, the IC50 is ≤ 100 nM and the “Mer/Flt3 ratio (FLT3 IC50/Mer IC50)” value is “+++ (a ratio of >100)”. The 50% inhibitory concentration (IC50) on TYRO3 was ≤ 100 nM.
As for `CO[C@H]1C[C@@H]1Nc1ncc2c(O[C@H]3C[C@@H](O)C3)ncc([C@H]3CC[C@H](O)CC3)c2n1` [Compound 417], the IC50 at MERTK and against TYRO3 was ≤ 100 nM throughout. Besides, the “Mer/Flt3 ratio (FLT3 IC50/Mer IC50)” value on MERTK was “+++ (a ratio of >100)”.
Consider `C[C@@H](CC(F)(F)F)Nc1ncc2c(OC3CC(C)(C)N(C[C@@H]4CCCO4)C(C)(C)C3)ncc([C@H]3CC[C@H](O)CC3)c2n1` [Compound 418], for which, on MERTK, the IC50 is ≤ 100 nM and the “Mer/Flt3 ratio (FLT3 IC50/Mer IC50)” value was “+++ (a ratio of >100)”. Moreover, the IC50 on TYRO3 is ≤ 100 nM.
On to `COC[C@H](C)Nc1ncc2c(O[C@H]3C[C@H](C(=O)N4CCN(C)CC4)C3)ncc([C@H]3CC[C@H](O)CC3)c2n1` [Compound 419], for which the IC50 on MERTK and at TYRO3 was ≤ 100 nM each time. Moreover, the “Mer/Flt3 ratio (FLT3 IC50/Mer IC50)” value on MERTK is reported as “+++ (a ratio of >100)”.
As for `C[C@@H](CC(F)(F)F)Nc1ncc2c(O[C@H]3C[C@H](CN4CCOCC4)C3)ncc([C@H]3CC[C@H](O)CC3)c2n1` [Compound 420], the IC50 at MERTK and against TYRO3 was ≤ 100 nM each time. The “Mer/Flt3 ratio (FLT3 IC50/Mer IC50)” value at MERTK is reported as “+++ (a ratio of >100)”.
As to `C[C@@H](CC(F)(F)F)Nc1ncc2c(O[C@@H]3C[C@H]4CC[C@@H](C3)N4C[C@@H]3CCCO3)ncc([C@H]3CC[C@H](O)CC3)c2n1` [Compound 421], at MERTK, the IC50 is ≤ 100 nM and the “Mer/Flt3 ratio (FLT3 IC50/Mer IC50)” value is “+++ (a ratio of >100)”. Moreover, the IC50 against TYRO3 was ≤ 100 nM.
Take `C[C@@H](CC(F)(F)F)Nc1ncc2c(O[C@H]3C[C@H](N4CCOCC4)C3)ncc([C@H]3CC[C@H](O)CC3)c2n1` [Compound 422]: the IC50 on MERTK and at TYRO3 was ≤ 100 nM each time. In addition, the “Mer/Flt3 ratio (FLT3 IC50/Mer IC50)” value on MERTK is reported as “+++ (a ratio of >100)”.
On to `C[C@@H](CC(F)(F)F)Nc1ncc2c(O[C@H]3C[C@@H](O)C3)ncc([C@H]3CC[C@](C)(O)CC3)c2n1` [Compound 423], for which, at MERTK, the IC50 is ≤ 100 nM and the “Mer/Flt3 ratio (FLT3 IC50/Mer IC50)” value is reported as “+++ (a ratio of >100)”. Moreover, on TYRO3, the IC50 is ≤ 100 nM.
Turning to `C[C@@H](CC(F)(F)F)Nc1ncc2c(O[C@H]3C[C@@H](O)C3)ncc([C@H]3CC[C@@](C)(O)CC3)c2n1` [Compound 424], the IC50 on MERTK and against TYRO3 was ≤ 100 nM throughout. Moreover, the “Mer/Flt3 ratio (FLT3 IC50/Mer IC50)” value at MERTK is “+++ (a ratio of >100)”.
With `COC[C@H](C)Nc1ncc2c(O[C@H]3C[C@@H](O)C3)ncc(-c3ccnnc3)c2n1` [Compound 425], on MERTK, the IC50 fell in the range of 100 to 1000 nM; the “Mer/Flt3 ratio (FLT3 IC50/Mer IC50)” value was “++ (a ratio of between 10 and 100)”. Further, the IC50 against TYRO3 fell in the range of 1000 to 10000 nM.
Take `COC[C@H](C)Nc1ncc2c(O[C@H]3C[C@@H](O)C3)ncc([C@H]3CC[C@](C)(O)CC3)c2n1` [Compound 426]: the IC50 at MERTK and at TYRO3 was ≤ 100 nM each time. The “Mer/Flt3 ratio (FLT3 IC50/Mer IC50)” value on MERTK is given as “+++ (a ratio of >100)”.
Turning to `COC[C@H](C)Nc1ncc2c(O[C@H]3C[C@@H](O)C3)ncc([C@H]3CC[C@@](C)(O)CC3)c2n1` [Compound 427], on MERTK, the IC50 was ≤ 100 nM and the “Mer/Flt3 ratio (FLT3 IC50/Mer IC50)” value is on record as “+++ (a ratio of >100)”. The IC50 against TYRO3 was ≤ 100 nM.
Regarding `C[C@@H](CC(F)F)Nc1ncc2c(O[C@H]3C[C@@H](O)C3)ncc([C@H]3CC[C@H](O)CC3)c2n1` [Compound 428], on MERTK, the IC50 is ≤ 100 nM and the “Mer/Flt3 ratio (FLT3 IC50/Mer IC50)” value is “+++ (a ratio of >100)”. The half-maximal inhibitory concentration (IC50) at TYRO3 is ≤ 100 nM.
Regarding `C[C@@H](CC(F)(F)F)Nc1ncc2c(O[C@H]3C[C@@](C)(O)C3)ncc([C@H]3CC[C@H](O)CC3)c2n1` [Compound 429], at MERTK, the concentration for half-maximal inhibition (IC50) is ≤ 100 nM and the “Mer/Flt3 ratio (FLT3 IC50/Mer IC50)” value is listed as “+++ (a ratio of >100)”. Moreover, on TYRO3, the IC50 is ≤ 100 nM.

As a reminder, the IC50 is the concentration at which inhibition is half-maximal.
